This passage reports IC50 results from patent US8247556B2, “Method for preparing 6-substituted-7-aza-indoles” (Amgen Inc., priority 2005, dated 2012).

One assay has as its target T1, CYP 2D6 (Homo sapiens, UniProt P10635).
T1 construct: followed by 555.6 ml of 20 mg/mL HLM (BD Gentest); tissue BD Gentest; host or cells: human liver microsomes
In words: Human Liver Microsome CYP 2D6 Inhibition. The class given is in vitro ADME. As to conditions: human liver microsomes, bufuralol substrate; read-out: inhibited CYP2D6 microsomes, IC50. As for the experimental part:
Determining the IC-50 for Human Liver Microsome CYP 2D6 Inhibition
Postassium Phosphate Buffer pH 7.4 (39.333 mL) is chilled in an ice bath and added to a 50 ml plastic tube. A 3.2 mM bufuralol solution is prepared. 111.1 ul of 3.2 mM bufuralol is added to the buffer followed by 555.6 ml of 20 mg/mL HLM (BD Gentest). The incubation mixture was gently inverted and equilibrated at 37° C. for 5 min. A stock inhibitor solution is prepared, such as in DMSO. Incubation mixture (801 ul) is added into 96-well, 1.2 mL plastic tubes. Inhibitor is added at various concentrations (e.g. 30 μM to […]). The tubes are sealed and mix by inverting 5 times gently. The incubation mixture containing inhibitor (270 μL) is added by aliquot into wells of a 1 mL, 96-well block (duplicate). The block is placed into a 37° C. water bath and equilibrated for 3 minutes. 10 mM NADPH (30 ml) is added to all samples. After 5 min, the reactions are stopped by adding 300 ml of Quench Solution [0.1% TFA in CH3CN]. 1′-OH-bufuralol-d9 (750 ng/mL 30 μL) is added, the block is gently vortexed then centrifuged at 3000 rpm for 10 min at 4° C. 50 μL of supernatant from all samples is added by aliquot into a shorter, 96-well block. The aliquoted supernatants are pooled with other assay(s) and HPLC Grade Water (50 μL) is added to all samples. After covering and shaking by vortex gently for 2 minutes, the solutions were analyzed by LC-MS (API 3000, 5% MeOH w/0.1% AcOH to 95% MeOH w/0.1% AcOH). 500 nM quinidine is used as a control.
In general terms: Microsomes from liver hold many membrane-bound enzymes, among them those of drug oxidation.

For another assay, the target named is T2, CYP 3A4 (Homo sapiens, UniProt P08684).
T2 construct: followed by 222.2 ml of 20 mg/mL HLM (BD Gentest); tissue BD Gentest; host or cells: human liver microsomes
In words: Human Liver Microsome CYP 3A4 Inhibition. The class given is in vitro ADME. The settings on record: human liver microsomes, midazolam substrate; read-out: inhibited CYP3A4 microsomes, IC50. As for the experimental part:
Determining the IC-50 for Human Liver Microsome CYP 3A4 Inhibition
Postassium Phosphate Buffer pH 7.4 (39.667 mL) is chilled in an ice bath and added to a 50 ml plastic tube. A 2 mM midazolam solution is prepared. 111.1 ul of 2 mM midazolam is added to the buffer followed by 222.2 ml of 20 mg/mL HLM (BD Gentest). The incubation mixture was gently inverted and equilibrated at 37° C. for 5 min. A stock inhibitor solution is prepared, such as in DMSO. Incubation mixture (801 ul) is added into 96-well, 1.2 mL plastic tubes. Inhibitor is added at various concentrations (e.g. 30 uM to 120 nM). The tubes are sealed and mix by inverting 5 times gently. The incubation mixture containing inhibitor (270 uL) is added by aliquot into wells of a 1 mL, 96-well block (duplicate). The block is placed into a 37° C. water bath and equilibrated for 3 min. 10 mM NADPH (30 ml) is added to all samples. After 5 minutes, the reactions are stopped by adding 300 ml of Quench Solution [0.1% TFA in CH3CN]. 1′-OH-Midazolam-d313C (2 mg/mL 30 uL) is added, the block is gently vortexed then centrifuged at 3000 rpm for 10 minutes at 4° C. 50 μL of supernatant from all samples is added by aliquot into a shorter, 96-well block. The aliquoted supernatants are pooled with other assay(s) and HPLC Grade Water (50 ul) is added to all samples. After covering and shaking by vortex gently for 2 minutes, the solutions were analyzed by LC-MS (API 3000,5% MeOH w/0.1% AcOH to 95% MeOH w/0.1% AcOH). 37 nM ketoconazole is used as a control.

The subject of assay [1] is VEGF-stimulated HUVEC proliferation (Human Umbilical Vein Endothelial cells). In words: HUVEC Proliferation Assay. As to conditions: VEGF 50 ng/mL, 72 h, CyQuant fluorescent dye, read-out: inhibited VEGF-stimulated HUVEC proliferation at a level. The class given is cell-based. An outline of the steps:
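HUVEC (passage 2–3) were seeded in DMEM+10% FBS for 22 h, then pre-incubated 2–3 h with 5-point, 5-fold compound dilutions (0.25% DMSO). They were then stimulated with VEGF (50 ng/mL final) for 72 h at 37 °C. Proliferation was read by CyQuant fluorescence (485/530 nm) after freeze-thaw, and IC50 came from a 4-parameter fit.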

Bounds are passed on as bounds.

T1 sequence (P10635 whole entry): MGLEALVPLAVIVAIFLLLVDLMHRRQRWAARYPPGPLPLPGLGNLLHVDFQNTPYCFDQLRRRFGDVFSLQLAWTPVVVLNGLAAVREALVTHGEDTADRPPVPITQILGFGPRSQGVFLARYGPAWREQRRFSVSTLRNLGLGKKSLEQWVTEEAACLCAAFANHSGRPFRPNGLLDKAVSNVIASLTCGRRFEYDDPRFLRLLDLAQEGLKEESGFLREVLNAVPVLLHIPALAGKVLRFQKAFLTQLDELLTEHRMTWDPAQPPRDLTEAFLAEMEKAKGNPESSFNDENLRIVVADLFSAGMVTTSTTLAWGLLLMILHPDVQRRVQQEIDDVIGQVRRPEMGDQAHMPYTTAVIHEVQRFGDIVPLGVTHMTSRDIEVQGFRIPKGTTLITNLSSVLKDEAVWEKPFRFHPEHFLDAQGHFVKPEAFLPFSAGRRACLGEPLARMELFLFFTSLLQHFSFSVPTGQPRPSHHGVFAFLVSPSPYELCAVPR
T2 sequence (P08684 whole entry): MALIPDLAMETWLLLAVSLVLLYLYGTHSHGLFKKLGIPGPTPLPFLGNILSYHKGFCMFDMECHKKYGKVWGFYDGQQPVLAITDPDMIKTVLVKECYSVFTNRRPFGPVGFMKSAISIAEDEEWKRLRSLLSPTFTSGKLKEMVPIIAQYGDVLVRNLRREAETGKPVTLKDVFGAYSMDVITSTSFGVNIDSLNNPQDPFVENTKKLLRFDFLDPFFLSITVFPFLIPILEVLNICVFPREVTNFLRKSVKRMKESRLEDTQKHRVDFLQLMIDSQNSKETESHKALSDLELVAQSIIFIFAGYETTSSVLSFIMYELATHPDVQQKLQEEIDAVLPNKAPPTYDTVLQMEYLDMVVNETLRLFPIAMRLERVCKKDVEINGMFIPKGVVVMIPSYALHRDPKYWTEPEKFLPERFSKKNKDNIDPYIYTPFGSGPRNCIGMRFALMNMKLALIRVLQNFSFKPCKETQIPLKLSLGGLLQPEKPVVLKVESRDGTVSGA

On to `Cc1nc2cc(NC(=O)c3cccnc3NCc3ccnc4c3CC(=O)N4)ccc2s1` [Example 74, N-(2-methyl-1,3-benzothiazol-5-yl)-2-(((2-oxo-2,3-dihydro-1H-pyrrolo[2,3-b]pyridin-4-yl)methyl)amino)-3-pyridinecarboxamide], for which the IC50 on CYP 2D6 and on CYP 3A4 was more than 20 µM in each case.
Consider `CC1(C)CCCNc2cc(NC(=O)c3cccnc3NCc3ccnc4[nH]ccc34)ccc21` [Example 64, N-(5,5-Dimethyl-2,3,4,5-tetrahydro-1H-benzo[b]azepin-8-yl)-2-[(1H-pyrrolo[2,3-b]pyridin-4-ylmethyl)-amino]-nicotinamide], for which the IC50 is less than 0.5 µM in assay [1], more than 20 µM on CYP 2D6 and more than 20 µM on CYP 3A4.
With `CC(C)(C)c1ccc(NC(=O)c2cccnc2NCc2ccncc2)cc1` [N-(4-tert-Butylphenyl)-2-((4-pyridinylmethyl)amino)-3-pyridinecarboxamide, reference compound], the IC50 on CYP 2D6 came to 8.7 µM; on CYP 3A4, 2.7 µM.
As to `O=C(Nc1ccc2c(c1)CNCC21CC1)c1cccnc1NCc1ccnc2[nH]ccc12` [Example 10, N-(4-Spiro-1′-cyclopropane-1,2,3,4-tetrahydroisoquinolin-7-yl)-2-[(1H-pyrrolo[2,3-b]pyridin-4-ylmethyl)amino]nicotinamide], the IC50 is less than 0.5 µM in assay [1], more than 20 µM on CYP 2D6 and more than 20 µM on CYP 3A4.
Turning to `Cc1ccc(NC(=O)c2cc(F)cnc2NCc2ccnc3[nH]ccc23)cc1C(F)(F)F` [Example 112, 5-fluoro-N-(4-methyl-3-(trifluoromethyl)phenyl)-2-((1H-pyrrolo[2,3-b]pyridin-4-ylmethyl)amino)-3-pyridinecarboxamide], the figures for the IC50 (in assay [1]; on CYP 2D6; on CYP 3A4) were less than 0.5 µM, more than 20 µM and more than 20 µM, respectively.
Regarding `CC1(C)CC(=O)Nc2cc(NC(=O)c3cccnc3NCc3c[nH]c4ncccc34)ccc21` [Example 41, N-(4,4-Dimethyl-2-oxo-1,2,3,4-tetrahydro-7-quinolinyl)-2-((1H-pyrrolo[2,3-b]pyridin-3-ylmethyl)amino)-3-pyridinecarboxamide], the figures for the IC50 (in assay [1]; on CYP 2D6; on CYP 3A4) were less than 0.5 µM, more than 20 µM and more than 20 µM, respectively.
Consider `O=C(Nc1cccc(C(F)(F)F)c1)c1cc(F)cnc1NCc1ccnc2[nH]ccc12` [Example 98, 5-fluoro-2-((1H-pyrrolo[2,3-b]pyridin-4-ylmethyl)amino)-N-(3-(trifluoromethyl)phenyl)-3-pyridinecarboxamide], for which the IC50 in assay [1] was less than 0.5 µM; at CYP 3A4 it was more than 20 µM.
`CC1(C)CC(=O)Nc2cc(NC(=O)c3cccnc3NCc3ccnc4c3CCN4)ccc21` [Example 30, 2-[(2,3-Dihydro-1H-pyrrolo[2,3-b]pyridin-4-ylmethyl)amino]-N-(4,4-dimethyl-2-oxo-1,2,3,4-tetrahydroquinolin-7-yl)nicotinamide]: the IC50 on CYP 2D6 and on CYP 3A4 was more than 20 µM each time.
As for `O=C(Nc1cccc(C(O)(C(F)(F)F)C(F)(F)F)c1)c1cccnc1NCc1ccnc2[nH]ccc12` [Example 18, 2-[(1H-Pyrrolo[2,3-b]pyridin-4-ylmethyl)amino]-N-{3-[2,2,2-trifluoro-1-hydroxy-1-(trifluoromethyl)ethyl]phenyl}nicotinamide], the figures for the IC50 (in assay [1]; on CYP 3A4) were less than 0.5 µM and more than 20 µM, respectively.
For the molecule `O=C(Nc1ccc(C(F)(F)C(F)(F)F)c(OC[C@@H]2CCCN2)c1)c1cccnc1NCc1ccnc2[nH]ccc12` [Example 72, N-(4-(Pentafluoroethyl)-3-(((2S)-2-pyrrolidinylmethyl)oxy)phenyl)-2-((1H-pyrrolo[2,3-b]pyridin-4-ylmethyl)amino)-3-pyridinecarboxamide], the IC50 in assay [1] was less than 0.5 µM; at CYP 3A4, more than 20 µM.
For `O=C(Nc1ccc(Br)cc1)c1cc(F)cnc1NCc1ccnc2[nH]ccc12` [Example 89, N-(4-bromophenyl)-5-fluoro-2-((1H-pyrrolo[2,3-b]pyridin-4-ylmethyl)amino)-3-pyridinecarboxamide] the same measures were less than 0.5 µM and more than 20 µM.
For `CC(=O)N1CC(C)(C)c2ccc(NC(=O)c3cccnc3NCc3c[nH]c4ncccc34)cc21` [Example 39, N-(1-acetyl-3,3-dimethyl-2,3-dihydro-1H-indol-6-yl)-2-[(1H-pyrrolo[2,3-b]pyridin-3-ylmethyl)amino]nicotinamide] the same measures were less than 0.5 µM and more than 20 µM.
In the same order, the values of `O=C(Nc1ccc(C(F)(F)F)c(F)c1)c1cc(F)cnc1NCc1ccnc2[nH]ccc12` [Example 107, 5-fluoro-N-(3-fluoro-4-(trifluoromethyl)phenyl)-2-((1H-pyrrolo[2,3-b]pyridin-4-ylmethyl)amino)-3-pyridinecarboxamide] are less than 0.5 µM and more than 20 µM.
As to `CN1CCC[C@@H]1COc1cc(NC(=O)c2cccnc2NCc2ccnc3[nH]ccc23)ccc1C(F)(F)F` [Example 68, N-(3-((((2R)-1-methyl-2-pyrrolidinyl)methyl)oxy)-4-(trifluoromethyl)phenyl)-2-((1H-pyrrolo[2,3-b]pyridin-4-ylmethyl)amino)-3-pyridinecarboxamide], the IC50 in assay [1] was less than 0.5 µM; at CYP 3A4, more than 20 µM.
In the same order, the values of `CCc1nc2cc(NC(=O)c3cc(F)cnc3NCc3ccnc4[nH]ccc34)ccc2o1` [Example 92, N-(2-ethyl-1,3-benzoxazol-5-yl)-5-fluoro-2-((1H-pyrrolo[2,3-b]pyridin-4-ylmethyl)amino)-3-pyridinecarboxamide] are less than 0.5 µM and more than 20 µM.
For `O=C(Nc1ccc(C(F)(F)F)c(Cl)c1)c1cc(F)cnc1NCc1ccnc2[nH]ncc12` [Example 127, N-(3-Chloro-4-(trifluoromethyl)phenyl)-5-fluoro-2-((1H-pyrazolo[3,4-b]pyridin-4-ylmethyl)amino)-3-pyridinecarboxamide] the same measures were less than 0.5 µM and more than 20 µM.
For `CC(C)c1nc2cc(NC(=O)c3cc(F)cnc3NCc3ccnc4[nH]ccc34)ccc2s1` [Example 103, 5-fluoro-N-(2-(1-methylethyl)-1,3-benzothiazol-5-yl)-2-((1H-pyrrolo[2,3-b]pyridin-4-ylmethyl)amino)-3-pyridinecarboxamide] the same measures were less than 0.5 µM and more than 20 µM.
For `CC(C)(C)c1ccc(NC(=O)c2cc(F)cnc2NCc2ccnc3[nH]ccc23)cc1` [Example 79, N-(4-(1,1-dimethylethyl)phenyl)-5-fluoro-2-((1H-pyrrolo[2,3-b]pyridin-4-ylmethyl)amino)-3-pyridinecarboxamide], the IC50 at CYP 2D6 and at CYP 3A4 was more than 20 µM each time.
Consider `CN1CCC[C@H]1COc1cc(NC(=O)c2cccnc2NCc2ccnc3[nH]ccc23)ccc1C(F)(F)C(F)(F)F` [Example 65, N-(3-((((2S)-1-methyl-2-pyrrolidinyl)methyl)oxy)-4-(pentafluoroethyl)phenyl)-2-((1H-pyrrolo[2,3-b]pyridin-4-ylmethyl)amino)-3-pyridinecarboxamide], for which the values for the IC50 (in assay [1]; on CYP 3A4) were less than 0.5 µM and more than 20 µM, respectively.
